Assay results as given in paper PMC6745845, “In Vitro and in Vivo antitumor activity and the mechanism of siphonodictyal B in human colon cancer cells” (Cancer Medicine, 2019).
Like-named read-outs stand apart in the source and are kept apart here. One block for each molecule: values may come before it.

How the values were obtained:
HCT 116 cells [1] = test: Western blot analysis; type: cell-based, human
Experimental: HCT 116 cells were seeded in six‐well plates at 2 × 10^5 cells/well and incubated for 24 houra. […] Cells were harvested and lysed using RIPA buffer. The proteins were separated on an SDS‐PAGE and transferred to PVDF membranes. Then, the membranes were blocked for 1 hour and incubated with primary antibodies overnight at 4°C. The membranes were washed and incubated with secondary antibodies for 1 hour at room temperature. Next, the resultant bands were detected using an Odyssey Infrared Imaging system (LI‐COR, NB, USA). Antibodies against phospho‐RB (Ser780), AKT, phospho‐AKT ([…]), PARP, phospho‐p38 MAPK (Thr180/Tyr182), p38 MAPK, and Bim were purchased from Cell Signaling Technology (Danvers, MA, USA). Antibodies against β‐actin and α‐tubulin were purchased from Sigma‐Aldrich.

PIM2 = biological target: T1, PIM2 (Homo sapiens, UniProt Q9P1W9); test: off-chip mobility shift assay, PIM2; type: biochemical
T1 construct: purchased Carna Biosciences
Experimental: (§1) Cellular kinase activities were evaluated using nonradioisotopic methods such as the off‐chip mobility shift assay or IMAP (Carna Biosciences, Kobe, Japan).11 A kinase inhibition profiling panel was produced on the basis of the kinase inhibition rates. In off‐chip mobility shift assay, compound solution was prepared in assay buffer (20 mmol/L HEPES, 0.01% Triton X‐100, 2 mmol/L DTT, pH 7.5) and incubated in a 384‐well plate at room temperature. The reaction was stopped by adding Termination Buffer (QuickScout Screening Assist MSA; Carna Biosciences, Kobe, Japan). The substrate peptide and the phosphorylated peptide in the reaction solution were separated and quantified by LabChip system (Perkin Elmer, MA, USA). In IMAP assay, compound solution was prepared in assay buffer (20 mmol/L HEPES, 0.01% Tween‐20, 2 mmol/L DTT, pH 7.4) and incubated in a 384‐well black plate at room temperature. IMAP binding reagent (IMAP Screening Express kit; Molecular Devices, CA, USA) was added and incubated for 30 minutes. The kinase reaction was evaluated at the fluorescence polarization.

CDK4/Cyclin D3 = biological target: T2, CDK4/Cyclin D3 (Homo sapiens, UniProt P11802); test: off-chip mobility shift assay, CDK4/Cyclin D3; type: biochemical
T2 construct: purchased Carna Biosciences
Experimental: as §1

CDK7/Cyclin H/MAT1 = biological target: T3, CDK7/Cyclin H/MAT1 (Homo sapiens, UniProt P50613); test: off-chip mobility shift assay, CDK7/Cyclin H/MAT1; type: biochemical
T3 construct: purchased Carna Biosciences
Experimental: as §1

313 protein kinases = test: kinase panel assay (off-chip mobility shift or IMAP); type: biochemical; conditions: 313 kinases; 10 μmol/L printed for siphonodictyal B
Experimental: as §1

PIK3CA/PIK3R1 = conditions: cited from earlier work
CDK6/Cyclin D3 = biological target: T4, CDK6/Cyclin D3 (Homo sapiens, UniProt Q00534); test: off-chip mobility shift assay, CDK6/Cyclin D3; type: biochemical
T4 construct: purchased Carna Biosciences
Experimental: as §1

HCT 116 cells [2] = test: ROS detection by DCFDA staining; type: cell-based, human; conditions: 2 h
Experimental: HCT 116 cells were treated with each drug for 2 hours and stained using a DCFDA/H2DCFDA—Cellular Reactive Oxygen Species Detection Assay Kit (Abcam). The measurement was performed using FC‐500.

HCT 116 cells [3] = test: cell proliferation assay (Cell Counting Kit-8), HCT 116
Experimental: Cells were seeded in 96‐well plates at 4000 cells/well and incubated for 24 hours, then treated with each concentration of siphonodictyal B. In experiments with SB203580 or NAC, cells were further preincubated for 24 or 1 hour before application of siphonodictyal B, respectively. Cells were incubated with Cell Counting Kit‐8 (Dojindo Molecular Technologies, Kumamoto, Japan) for 1.5 hours. Then, the absorbance of each well was measured using SpectraMaxM2e (Molecular Devices, CA, USA). The ratios of surviving cells to control cells treated with 0.1% DMSO were calculated.

HCT 116 xenograft = test: xenograft mouse model, tumor growth; type: in vivo, Balb/c nude mice; conditions: 20 mg/kg intraperitoneally every 3 days
Experimental: (§2) All animal experiments were performed according to the Regulations for Animal Experiments and Related Activities at Tohoku University. Six‐week‐old female Balb/c nude mice were purchased from Charles River Laboratories (Wilmington, MA, USA). HCT 116 cells (5 × 10^6) were implanted subcutaneously into the right flanks of nude mice. After tumor formation was confirmed, mice were assigned to treatment with 20 mg/kg siphonodictyal B or vehicle (four mice per group) administered intraperitoneally every 3 days. Siphonodictyal B was dissolved in saline with 2.5% CremophorEL® and 2.5% ethanol. Tumor volumes were calculated on the basis of tumor mass using the formula length × width × width/2 (mm^3). The body weights of mice were also measured every 3 days.

phospho-p38 = test: immunohistochemistry of xenograft tumor tissue; type: in vivo, Balb/c nude mice; conditions: 20 mg/kg intraperitoneally every 3 days, after all treatments
Experimental: as §2
Tumor tissues were collected from mice, fixed in 10% formalin, and embedded in paraffin. Tumor sections on slides were dewaxed, rehydrated, and incubated with a specific antibody against phospho‐p38.

[4] = read-out: PI3K (p110α/p85α) inhibitory activity IC50
[5] = ref Kikuchi T et al. 2016;2016(34):5659-66, read-out: IC50 PIK3CA/PIK3R1

T1 sequence (Q9P1W9 whole entry): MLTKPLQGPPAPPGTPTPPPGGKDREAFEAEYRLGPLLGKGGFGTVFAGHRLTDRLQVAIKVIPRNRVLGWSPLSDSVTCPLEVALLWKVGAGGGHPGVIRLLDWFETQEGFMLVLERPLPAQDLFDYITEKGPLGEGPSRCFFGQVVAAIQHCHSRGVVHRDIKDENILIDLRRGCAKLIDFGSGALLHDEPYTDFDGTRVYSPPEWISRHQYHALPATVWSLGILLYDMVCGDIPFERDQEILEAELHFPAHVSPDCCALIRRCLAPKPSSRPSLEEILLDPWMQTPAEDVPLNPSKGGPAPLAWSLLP
T4 sequence (Q00534 whole entry): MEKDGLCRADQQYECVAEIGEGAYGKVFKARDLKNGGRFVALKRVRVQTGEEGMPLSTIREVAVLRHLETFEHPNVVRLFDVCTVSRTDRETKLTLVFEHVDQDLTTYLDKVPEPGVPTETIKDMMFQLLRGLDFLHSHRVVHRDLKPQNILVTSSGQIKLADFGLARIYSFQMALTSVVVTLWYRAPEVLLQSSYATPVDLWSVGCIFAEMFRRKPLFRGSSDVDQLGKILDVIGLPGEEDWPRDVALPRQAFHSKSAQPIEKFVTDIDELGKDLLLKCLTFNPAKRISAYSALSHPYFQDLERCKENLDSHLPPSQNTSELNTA
T4 sequence (P30281 whole entry partner): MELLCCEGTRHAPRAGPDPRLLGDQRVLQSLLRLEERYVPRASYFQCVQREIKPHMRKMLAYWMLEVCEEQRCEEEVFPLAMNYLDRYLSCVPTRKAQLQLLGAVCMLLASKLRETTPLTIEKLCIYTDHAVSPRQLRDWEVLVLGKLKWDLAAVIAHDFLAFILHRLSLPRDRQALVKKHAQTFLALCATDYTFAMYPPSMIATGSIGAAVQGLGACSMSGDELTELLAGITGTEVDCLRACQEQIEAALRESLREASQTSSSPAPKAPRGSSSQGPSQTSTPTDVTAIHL
T2 sequence (P11802 whole entry): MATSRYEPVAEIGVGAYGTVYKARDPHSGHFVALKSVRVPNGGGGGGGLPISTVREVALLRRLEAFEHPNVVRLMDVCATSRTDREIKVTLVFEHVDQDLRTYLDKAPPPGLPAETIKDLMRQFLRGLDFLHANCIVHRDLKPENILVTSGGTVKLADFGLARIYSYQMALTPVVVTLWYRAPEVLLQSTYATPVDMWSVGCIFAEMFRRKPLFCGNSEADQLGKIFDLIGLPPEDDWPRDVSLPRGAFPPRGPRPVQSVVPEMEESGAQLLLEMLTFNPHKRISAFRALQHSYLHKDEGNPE
T2 sequence (P30281 whole entry partner): as the sequence (P30281 whole entry partner) above
T3 sequence (P50613 whole entry): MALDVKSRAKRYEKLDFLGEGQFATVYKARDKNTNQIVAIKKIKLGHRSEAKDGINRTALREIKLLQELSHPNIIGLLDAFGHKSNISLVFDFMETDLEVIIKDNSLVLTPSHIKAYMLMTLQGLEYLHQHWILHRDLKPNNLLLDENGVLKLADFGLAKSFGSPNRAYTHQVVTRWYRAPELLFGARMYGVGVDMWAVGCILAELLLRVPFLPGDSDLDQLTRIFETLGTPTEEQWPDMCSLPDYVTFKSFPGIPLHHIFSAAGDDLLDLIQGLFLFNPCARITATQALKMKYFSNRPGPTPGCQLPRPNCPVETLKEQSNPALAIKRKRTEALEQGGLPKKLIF
T3 sequence (P51946 whole entry partner): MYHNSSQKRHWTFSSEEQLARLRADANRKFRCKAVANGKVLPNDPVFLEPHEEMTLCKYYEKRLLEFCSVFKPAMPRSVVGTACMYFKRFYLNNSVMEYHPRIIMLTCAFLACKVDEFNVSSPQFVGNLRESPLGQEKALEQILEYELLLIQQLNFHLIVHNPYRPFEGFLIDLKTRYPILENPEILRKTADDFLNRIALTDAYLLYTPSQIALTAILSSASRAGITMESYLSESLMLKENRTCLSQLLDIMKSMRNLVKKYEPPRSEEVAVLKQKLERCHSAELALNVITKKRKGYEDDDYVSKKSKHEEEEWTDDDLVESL
T3 sequence (P51948 whole entry partner): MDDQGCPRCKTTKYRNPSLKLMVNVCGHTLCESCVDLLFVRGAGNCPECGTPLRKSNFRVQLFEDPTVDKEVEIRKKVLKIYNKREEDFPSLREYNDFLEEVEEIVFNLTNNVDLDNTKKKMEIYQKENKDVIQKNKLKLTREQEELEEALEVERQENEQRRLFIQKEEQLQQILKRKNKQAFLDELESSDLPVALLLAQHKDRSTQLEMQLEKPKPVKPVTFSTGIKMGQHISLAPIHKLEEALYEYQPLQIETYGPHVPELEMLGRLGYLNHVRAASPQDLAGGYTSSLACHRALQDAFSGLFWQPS

Structure (SMILES): CS(=O)(=O)N1CCN(Cc2cc3nc(-c4cccc5[nH]ncc45)nc(N4CCOCC4)c3s2)CC1 [GDC0941, reference compound]
- AKT phosphorylation (HCT 116 cells [1]; 2 μmol/L GDC0941, 48 h): inhibited

- IC50 (PIM2): 5.31 µM
- IC50 (CDK4/Cyclin D3): 19.9 µM
- IC50 (CDK7/Cyclin H/MAT1): 1.27 µM
- inhibition of CDK4, CDK6, CDK7 and PIM-2 in kinase panel (313 protein kinases): strongly inhibited
- IC50 (CDK6/Cyclin D3): 6.78 µM
Structure (SMILES): CC1CCC2C(C)(C)CCCC2(C)c2c1oc1c(C=O)c(O)c(O)cc21 (stereo not shown) [Liphagal]
- IC50 (PIK3CA/PIK3R1; [4]): 4.1 µM
- IC50 (PIK3CA/PIK3R1; [5]): 4.12 µM

Structure (SMILES): CC1CC[C@H]2C(C)(C)CCC[C@]2(C)C1=Cc1cc(O)c(O)c(C=O)c1O (stereo partly shown) [Siphonodictyal B]
- ROS levels vs DMSO (HCT 116 cells [2]): higher
- increased ROS production on addition of NAC (HCT 116 cells [2]; with NAC): completely canceled
- IC50 (PIM2): 6.99 µM
- cytotoxic effect (ratio of surviving cells) (HCT 116 cells [3]; HCT 116, 0.01-10 μmol/L, 24 h): more potent cytotoxic effects than liphagal
- cytotoxic effect on addition of NAC (HCT 116 cells [3]; HCT 116, with NAC, 24 h): almost completely rescued
- cytotoxic effect on addition of SB203580 (HCT 116 cells [3]; HCT 116, with SB203580, 48 h): partially canceled
- IC50 (CDK4/Cyclin D3): 32.9 µM
- IC50 (CDK7/Cyclin H/MAT1): 13.7 µM
- PARP cleavage (HCT 116 cells [1]; 1.0 μmol/L, 48 h): induced
- p38 phosphorylation (HCT 116 cells [1]; 1.0 μmol/L, 48 h): clearly induced
- AKT phosphorylation at Ser473 (HCT 116 cells [1]; 0.1, 0.5 or 1 μmol/L, 48 h): did not inhibit
- RB phosphorylation at Ser780 (HCT 116 cells [1]; 0.1, 0.5 or 1 μmol/L, 48 h): did not inhibit
- levels of Bim (HCT 116 cells [1]; 0.5 or 1.0 μmol/L, 48 h): increased
- phosphorylated p38 on addition of NAC (HCT 116 cells [1]; with NAC, 24 h): reduced
- p38 phosphorylation on addition of SB203580 (HCT 116 cells [1]; with SB203580, 48 h): reduced
- tumor volume vs control group (HCT 116 xenograft): significantly smaller
- tumor weight vs control group (HCT 116 xenograft): significantly smaller
- inhibition of CDK4, CDK6, CDK7 and PIM-2 in kinase panel (313 protein kinases): strongly inhibited
- phosphorylated p38 staining in tumor tissue vs control group (phospho-p38): strongly stained
- IC50 (PIK3CA/PIK3R1; [4]): 2.6 µM
- IC50 (PIK3CA/PIK3R1; [5]): 2.62 µM
- IC50 (CDK6/Cyclin D3): 69.1 µM

Structure (SMILES): CC(=O)c1c(C)c2cnc(Nc3ccc(N4CCNCC4)cn3)nc2n(C2CCCC2)c1=O [palbociclib, Palbociclib, reference compound]
- RB phosphorylation (HCT 116 cells [1]; 10 μmol/L palbociclib, 48 h): inhibited
